The source of these data is patent US8557960B2, “Peptide for augmenting and expression of BDNF and pharmaceutical composition for prevention and treatment of neurodegenerative diseases including Alzheimer's disease or Parkinson's disease, comprising the same” (Sungkyunkwan University, priority 2009, dated 2013).

For the test, the system named is BDNF. Nature of the test: Assay for BDNF expression in dopamine-reactive human cell line SH-SY5Y (Western blotting). It counts as cell-based. The note with it: SH-SY5Y cells, 12 hrs treatment, FIG. 2. Here is the method: SH-SY5Y cells were seeded at a density of 2×10^5 cells/well into 6-well plates (NUNC) and incubated at 34° C. for 12 hrs in a 5% CO2 incubator and then for an additional 12 hrs in the presence of one of NP 2 to 9 at a concentration of 1 pM, 10 pM, 100 pM, 1 nM, 10 nM, 100 nM, or 1 μM. The cells in each well were washed twice with 1 mL of 1×PBS […], treated with 10 μL of protease inhibitor (Amersham) per 1 mL of RIPA, and collected into 1.5 mL tubes using a cell lifter (Corning). After centrifugation at 4° C. and 9000 rpm for 5 min (MiCRO 17 TR, Hnil Science Industrial Co., Ltd.) to pelletize cell membranes, the supernatants containing proteins were transferred into new 1.5 mL tubes and quantitatively measured for protein level using a Bradford assay.
20 μL of each sample was loaded onto 15% acrylamide gel, prepared using a 1.5 mm Western blotting gel caster (Bio-Rad), and run for 2.5 hrs in the presence of an electric field of 100 V using an electrophoresis power supply (EPS 601, Amersham). The proteins run on the gel were transferred onto a PVDF membrane (Polyvinylidene Difluoride, Millipore) at 400 mA for 2.5 hrs in a transfer tank (Mighty small transphor, Amersham) using an electrophoresis power supply (EPS301, GE healthcare). The PVDF membrane was blocked for 1 hr with 7% skim milk (Difco™ Skim milk, BD) and incubated overnight with a mouse anti-human BDNF monoclonal antibody at a dilution ratio of 1:500. Thereafter, the membrane was washed for 2 hrs 0.05% TBST (Tris-Buffered Saline Tween 20) (this buffer was replaced every hour) and incubated for 1 hr with goat anti-mouse IgG:HRP (IgG:Horseradish Peroxidase Conjugate, SC-2005, Santa Cruz Biotechnology) at a ratio of 1:500. After washing the membrane with 0.05% TBST for 2 hrs (the buffer was replaced every hour), proteins were detected using a chemiluminescent HRP substrate kit (Millipore), and the results are shown in FIG. 2.
In general terms: Immunoblotting shows a protein as a band on a membrane.
For Met-Asp-Gly [NP-5], the “BDNF expression (relative level of BDNF to β-actin vs control)” value was “even a very small amount of NP-5 and NP-6 could augment BDNF expression”. As for Met-Thr-Gly [NP-6], the entry is “even a very small amount of NP-5 and NP-6 could augment BDNF expression”; as for Val-Gly [NP-9], “used at the same or less than was the amount of the tripeptides so as to induce BDNF expression”.
